Source: ChEMBL document CHEMBL5034019, “Discovery of the Next-Generation Pan-TRK Kinase Inhibitors for the Treatment of Cancer” (J Med Chem, 2021)
Values after ≈ are worked out from the molar mass of the structure shown.

Experiments:
[1] = biological target: High affinity nerve growth factor receptor (Homo sapiens, UniProt P04629, G595R)
[2] = biological target: Fibroblast growth factor receptor 3 (Homo sapiens) (UniProt P22607); assay: Inhibition of recombinant human FGFR3 (447 to 761 residues) assessed as residual activity at 0.5 uM using poly(Glu, Tyr) 4:1 as substrate at 40 mins in presence of [gamma-33ATP] by scintillation counting based radiometry assay relative to control
[3] = tested on: Tyrosine-protein kinase BTK (Homo sapiens), Q06187 [R28H]; assay: Inhibition of recombinant full length human BTK R28H mutant assessed as residual activity at 0.5 uM using LSNLYHQGKFLQT as substrate incubated for 40 mins in presence of [gamma-33P]-ATP by scintillation counting method relative to control
[4] = biological target: Platelet-derived growth factor receptor alpha (Homo sapiens) (UniProt P16234); assay: Inhibition of human PDGFRalpha (550 to end residues) assessed as residual activity at 0.5 uM poly(Glu, Tyr) 4:1 as substrate measured after 40 mins in presence of [gamma33P]ATP by scintillation counting method relative to control
[5] = biological target: Serine/threonine-protein kinase B-raf (Homo sapiens) (UniProt P15056); assay: Inhibition of recombinant […] human B-Raf (416 to end residues) assessed as residual activity at 0.5 uM using myelin basic protein substrate incubated for 40 mins in presence of [gamma-33ATP] by scintillation counting based radiometry assay relative to control
[6] = AUC (0 to t) in female Sprague-Dawley rat at 10 mg/kg, po measured up to 24 hrs by LC-MS/MS analysis; format: ADME, organism-based; set-up: route oral, dose 10 mg/kg, time <=24; conditions: in vivo
[7] = Oral bioavailability in female Sprague-Dawley rat at 10 mg/kg measured up to 24 hrs by LC/MS/MS analysis; format: ADME, organism-based; conditions: in vivo
[8] = biological target: Receptor-interacting serine/threonine-protein kinase 1 (Homo sapiens) (UniProt Q13546); assay: Inhibition of recombinant human RIPK1 (8 to 322 residues) assessed as residual activity at 0.5 uM using myelin basic protein as substrate incubated for 40 mins in presence of [gamma33P]ATP by scintillation counting based radiometry assay relative to control
[9] = biological target: Tyrosine-protein kinase JAK3 (Homo sapiens) (UniProt P52333); assay: Inhibition of human JAK3 (781 to end residues) assessed as residual activity at 0.5 uM using GGEEEEYFELVKKKK as substrate after 40 mins by [gamma-33ATP] radiometric assay relative to control
[10] = Half life in female Sprague-Dawley rat at 2 mg/kg, iv measured up to 24 hrs by LC-MS/MS analysis; format: ADME, organism-based; conditions: in vivo
[11] = tested on: Mast/stem cell growth factor receptor Kit (Homo sapiens), P10721 [V560G]; assay: Inhibition of recombinant human C-Kit V560G mutant (544 to end residues) assessed as residual activity at 0.5 uM poly(Glu, Tyr) 4:1 as substrate incubated 40 mins in presence of [gamma-33ATP] by scintillation counting based radiometry assay relative to control
[12] = biological target: Focal adhesion kinase 1 (Homo sapiens) (UniProt Q05397); assay: Inhibition of recombinant human FAK (411 to 686 residues) assessed as residual activity at 0.5 uM using EEEEYEEEEEEYYIIEEEEEEYEEEEEEYYEEEEEEKKKK as substrate at 40 mins in presence of [gamma-33ATP] by scintillation counting based radiometry assay relative to control
[13] = biological target: Receptor-interacting serine/threonine-protein kinase 2 (Homo sapiens) (UniProt O43353); assay: Inhibition of recombinant human RIPK2 (1 to 299 residues) assessed as residual activity at 0.5 uM using myelin basic protein as substrate incubated for 120 mins in presence of [gamma33P]ATP by scintillation counting based radiometry assay relative to control
[14] = biological target: NT-3 growth factor receptor (Homo sapiens, UniProt Q16288)
Description: Inhibition of TrKC (unknown origin) incubated for 120 mins in presence of 33P-ATP

[15] = tested on: Epidermal growth factor receptor (Homo sapiens), P00533 [L861Q]; assay: Inhibition of recombinant human EGFR L861Q mutant (696 to end residues) assessed as residual activity at 0.5 uM using poly(Glu, Tyr) 4:1 as substrate at 40 mins in presence of [gamma-33ATP] by scintillation counting based radiometry assay relative to control
[16] = Kinetic solubility of the compound; format: physicochemical; conditions: read-out: Kinetic_solubility
[17] = biological target: BDNF/NT-3 growth factors receptor (Homo sapiens) (UniProt Q16620); assay: Inhibition of human TrkB (455 to end residues) assessed as residual activity at 0.5 uM using poly(Glu, Tyr) 4:1 as substrate measured after 40 mins in presence of [gamma33P]ATP by scintillation counting method relative to control
[18] = C0 in female Sprague-Dawley rat at 2 mg/kg, iv measured up to 24 hrs by LC/MS/MS analysis; format: ADME, organism-based; conditions: in vivo
[19] = Cmax in male Sprague-Dawley rat at 10 mg/kg, po measured up to 24 hrs by LC-MS/MS analysis; format: ADME, organism-based; set-up: route oral, dose 10 mg/kg, time <=24; conditions: in vivo
[20] = tested on: Mast/stem cell growth factor receptor Kit (Homo sapiens), P10721 [D816V]; assay: Inhibition of recombinant human C-Kit D816V mutant (544 to end residues) assessed as residual activity at 0.5 uM poly(Glu, Tyr) 4:1 as substrate incubated 40 mins in presence of [gamma-33ATP] by scintillation counting based radiometry assay relative to control
[21] = biological target: Proto-oncogene tyrosine-protein kinase Src (Homo sapiens) (UniProt P12931); assay: Inhibition of human Src (1 to 530 residues) assessed as residual activity at 0.5 uM using GGEEEEYFELVKKKK as substrate measured after 40 mins in presence of [gamma33P]ATP by scintillation counting method relative to control
[22] = biological target: ALK tyrosine kinase receptor (Homo sapiens, UniProt Q9UM73); assay: Inhibition of human ALK (1058 to end residues) assessed as residual activity at 0.5 uM using KKKSPGEYVNIEFG as substrate incubated for 40 mins in presence of [gamma-33ATP] by scintillation counting based radiometry assay relative to control
[23] = biological target: Fibroblast growth factor receptor 4 (Homo sapiens) (UniProt P22455); assay: Inhibition of recombinant human FGFR4 (442 to 755 residues) assessed as residual activity at 0.5 uM using poly(Glu, Tyr) 4:1 as substrate at 40 mins in presence of [gamma-33ATP] by scintillation counting based radiometry assay relative to control
[24] = Toxicity in mouse xenografted with mouse BaF3 cells transfected with ETV6-NTRK3 assessed as unkempt appearance at 100 mg/kg, po administered once daily for 21 days and measured twice weekly; conditions: in vivo, 504 h
[25] = Toxicity in mouse xenografted with mouse BaF3 cells transfected with ETV6-NTRK3-G623R mutant assessed as unkempt appearance at 100 mg/kg, po administered once daily for 21 days and measured twice weekly; conditions: in vivo, 504 h
[26] = Tmax in Sprague-Dawley rat at 10 mg/kg, po measured up to 24 hrs by LC-MS analysis; format: ADME, organism-based; conditions: in vivo

Receptor-interacting serine/threonine-protein kinase 2 (Homo sapiens), sequence (O43353 whole entry, the tested form may be a part): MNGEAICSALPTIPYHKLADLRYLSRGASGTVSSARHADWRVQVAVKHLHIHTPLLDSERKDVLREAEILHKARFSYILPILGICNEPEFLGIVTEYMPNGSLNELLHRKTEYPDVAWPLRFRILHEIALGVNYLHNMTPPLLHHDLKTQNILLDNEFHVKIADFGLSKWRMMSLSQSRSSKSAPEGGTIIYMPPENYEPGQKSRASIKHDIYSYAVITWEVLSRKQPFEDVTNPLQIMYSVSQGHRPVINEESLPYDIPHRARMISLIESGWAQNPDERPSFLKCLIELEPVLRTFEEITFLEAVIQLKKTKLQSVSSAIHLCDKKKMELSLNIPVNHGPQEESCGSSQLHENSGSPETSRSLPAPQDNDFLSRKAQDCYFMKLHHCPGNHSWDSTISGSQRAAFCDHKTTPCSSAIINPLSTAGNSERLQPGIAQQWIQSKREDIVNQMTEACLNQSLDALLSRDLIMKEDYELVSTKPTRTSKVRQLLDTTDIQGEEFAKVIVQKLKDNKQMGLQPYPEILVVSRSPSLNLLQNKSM
Mast/stem cell growth factor receptor Kit (Homo sapiens), P10721 [D816V], sequence (P10721 whole entry D816V, the tested form may be a part): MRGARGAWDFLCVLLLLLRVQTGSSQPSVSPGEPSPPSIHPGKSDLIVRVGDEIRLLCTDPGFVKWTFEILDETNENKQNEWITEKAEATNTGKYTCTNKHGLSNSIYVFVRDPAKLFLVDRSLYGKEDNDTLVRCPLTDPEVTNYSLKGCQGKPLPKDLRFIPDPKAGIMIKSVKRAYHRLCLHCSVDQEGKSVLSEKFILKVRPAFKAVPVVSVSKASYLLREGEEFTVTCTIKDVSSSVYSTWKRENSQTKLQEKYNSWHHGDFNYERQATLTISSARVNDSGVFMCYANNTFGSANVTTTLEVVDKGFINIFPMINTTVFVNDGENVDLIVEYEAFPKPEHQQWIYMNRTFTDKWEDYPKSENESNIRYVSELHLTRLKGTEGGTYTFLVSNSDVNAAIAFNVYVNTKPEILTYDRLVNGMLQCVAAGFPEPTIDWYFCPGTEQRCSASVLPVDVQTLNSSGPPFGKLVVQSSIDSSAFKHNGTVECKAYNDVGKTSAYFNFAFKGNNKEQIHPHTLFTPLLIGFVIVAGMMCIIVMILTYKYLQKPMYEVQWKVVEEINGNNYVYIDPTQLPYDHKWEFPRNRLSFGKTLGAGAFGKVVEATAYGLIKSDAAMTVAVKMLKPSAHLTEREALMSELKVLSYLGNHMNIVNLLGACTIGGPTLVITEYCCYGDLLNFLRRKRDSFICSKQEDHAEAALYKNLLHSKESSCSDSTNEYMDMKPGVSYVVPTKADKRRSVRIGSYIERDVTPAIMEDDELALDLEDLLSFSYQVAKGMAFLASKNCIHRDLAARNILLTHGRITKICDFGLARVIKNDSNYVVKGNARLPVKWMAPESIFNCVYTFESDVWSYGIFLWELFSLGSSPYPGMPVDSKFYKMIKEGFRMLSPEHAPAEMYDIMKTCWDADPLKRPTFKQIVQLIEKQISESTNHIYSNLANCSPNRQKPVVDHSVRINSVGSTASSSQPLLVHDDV
Fibroblast growth factor receptor 4 (Homo sapiens), sequence (P22455 22-802 limits assumed): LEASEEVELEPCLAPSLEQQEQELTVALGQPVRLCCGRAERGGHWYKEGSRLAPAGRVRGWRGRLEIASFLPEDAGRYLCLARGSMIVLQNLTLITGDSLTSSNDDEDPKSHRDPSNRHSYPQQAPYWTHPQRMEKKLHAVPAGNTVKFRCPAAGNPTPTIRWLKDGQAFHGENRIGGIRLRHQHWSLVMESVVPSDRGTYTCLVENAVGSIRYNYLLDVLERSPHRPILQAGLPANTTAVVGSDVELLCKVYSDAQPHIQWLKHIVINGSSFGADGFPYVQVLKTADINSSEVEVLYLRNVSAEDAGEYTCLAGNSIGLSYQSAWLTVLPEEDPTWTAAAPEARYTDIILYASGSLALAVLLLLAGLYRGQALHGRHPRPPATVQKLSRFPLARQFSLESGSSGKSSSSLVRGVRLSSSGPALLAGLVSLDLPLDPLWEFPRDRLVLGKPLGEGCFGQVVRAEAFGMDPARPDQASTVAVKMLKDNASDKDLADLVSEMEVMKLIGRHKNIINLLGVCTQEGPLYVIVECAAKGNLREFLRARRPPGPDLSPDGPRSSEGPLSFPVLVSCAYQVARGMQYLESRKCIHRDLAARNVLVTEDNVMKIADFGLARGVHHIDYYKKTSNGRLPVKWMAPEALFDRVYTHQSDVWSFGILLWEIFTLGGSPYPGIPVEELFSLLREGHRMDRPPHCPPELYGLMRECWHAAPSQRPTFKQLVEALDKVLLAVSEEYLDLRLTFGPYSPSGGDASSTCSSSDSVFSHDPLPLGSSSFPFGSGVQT
Fibroblast growth factor receptor 3 (Homo sapiens), sequence (P22607 23-806 limits assumed): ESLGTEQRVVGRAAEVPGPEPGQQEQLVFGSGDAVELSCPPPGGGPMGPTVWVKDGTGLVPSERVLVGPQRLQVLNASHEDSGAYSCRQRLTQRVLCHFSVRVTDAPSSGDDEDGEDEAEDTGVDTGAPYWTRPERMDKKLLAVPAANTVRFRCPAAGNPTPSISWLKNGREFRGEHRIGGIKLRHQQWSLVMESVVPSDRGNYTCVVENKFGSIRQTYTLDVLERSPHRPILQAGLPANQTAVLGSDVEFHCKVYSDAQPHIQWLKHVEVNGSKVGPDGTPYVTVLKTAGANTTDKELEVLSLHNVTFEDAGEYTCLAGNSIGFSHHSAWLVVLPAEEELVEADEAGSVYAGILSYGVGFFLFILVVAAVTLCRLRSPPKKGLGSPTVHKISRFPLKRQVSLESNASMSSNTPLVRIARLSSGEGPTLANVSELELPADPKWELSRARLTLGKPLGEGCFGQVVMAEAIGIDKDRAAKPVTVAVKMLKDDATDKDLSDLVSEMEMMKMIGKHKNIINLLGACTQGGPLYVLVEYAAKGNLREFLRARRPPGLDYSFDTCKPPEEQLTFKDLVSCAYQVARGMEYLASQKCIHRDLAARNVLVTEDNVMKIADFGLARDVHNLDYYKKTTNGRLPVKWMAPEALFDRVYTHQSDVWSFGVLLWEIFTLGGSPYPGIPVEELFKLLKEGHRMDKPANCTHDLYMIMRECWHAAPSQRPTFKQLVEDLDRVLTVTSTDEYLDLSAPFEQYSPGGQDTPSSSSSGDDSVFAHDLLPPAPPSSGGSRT
Serine/threonine-protein kinase B-raf (Homo sapiens), sequence (P15056 whole entry): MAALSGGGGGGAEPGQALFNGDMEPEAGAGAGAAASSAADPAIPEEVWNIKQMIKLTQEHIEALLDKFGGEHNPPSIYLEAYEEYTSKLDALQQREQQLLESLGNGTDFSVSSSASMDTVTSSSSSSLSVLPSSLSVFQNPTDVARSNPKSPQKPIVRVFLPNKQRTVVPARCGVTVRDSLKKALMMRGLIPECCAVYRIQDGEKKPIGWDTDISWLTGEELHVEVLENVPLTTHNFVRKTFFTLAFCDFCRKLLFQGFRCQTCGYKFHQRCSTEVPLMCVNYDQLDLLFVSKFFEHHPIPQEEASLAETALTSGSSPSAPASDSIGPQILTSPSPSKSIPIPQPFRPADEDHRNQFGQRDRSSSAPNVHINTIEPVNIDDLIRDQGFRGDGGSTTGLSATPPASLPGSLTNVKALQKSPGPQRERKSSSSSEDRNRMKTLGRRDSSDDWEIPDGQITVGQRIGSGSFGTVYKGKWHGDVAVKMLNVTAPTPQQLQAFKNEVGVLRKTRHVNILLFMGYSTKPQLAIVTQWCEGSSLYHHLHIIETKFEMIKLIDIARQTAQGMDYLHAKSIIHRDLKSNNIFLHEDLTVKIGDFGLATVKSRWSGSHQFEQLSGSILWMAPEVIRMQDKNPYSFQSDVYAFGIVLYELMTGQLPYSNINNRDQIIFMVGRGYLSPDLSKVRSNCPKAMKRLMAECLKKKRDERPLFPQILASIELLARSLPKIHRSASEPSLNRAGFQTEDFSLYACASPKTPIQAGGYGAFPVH
Receptor-interacting serine/threonine-protein kinase 1 (Homo sapiens), sequence (Q13546 whole entry, the tested form may be a part): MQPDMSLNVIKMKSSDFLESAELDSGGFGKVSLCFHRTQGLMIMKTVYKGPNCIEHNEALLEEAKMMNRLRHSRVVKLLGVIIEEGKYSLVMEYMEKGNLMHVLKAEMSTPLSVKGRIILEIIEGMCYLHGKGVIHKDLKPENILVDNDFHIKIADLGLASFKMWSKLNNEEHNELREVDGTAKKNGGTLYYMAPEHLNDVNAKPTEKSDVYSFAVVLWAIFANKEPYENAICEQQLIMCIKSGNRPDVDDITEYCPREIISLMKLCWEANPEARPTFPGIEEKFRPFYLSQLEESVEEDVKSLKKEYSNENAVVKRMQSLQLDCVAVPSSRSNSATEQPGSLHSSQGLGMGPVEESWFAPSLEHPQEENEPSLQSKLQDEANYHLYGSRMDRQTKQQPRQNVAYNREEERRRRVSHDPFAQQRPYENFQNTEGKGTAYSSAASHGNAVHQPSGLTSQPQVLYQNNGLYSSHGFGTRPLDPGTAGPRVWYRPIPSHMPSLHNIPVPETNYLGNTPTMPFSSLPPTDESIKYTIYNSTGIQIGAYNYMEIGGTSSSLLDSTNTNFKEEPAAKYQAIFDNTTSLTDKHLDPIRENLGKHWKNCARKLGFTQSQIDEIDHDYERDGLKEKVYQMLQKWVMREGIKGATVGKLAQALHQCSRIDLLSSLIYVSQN
Mast/stem cell growth factor receptor Kit (Homo sapiens), P10721 [V560G], sequence (P10721 whole entry V560G, the tested form may be a part): as the sequence (P10721 whole entry D816V, the tested form may be a part) above, with V560G, V816D counted along it

Q: With O=C1NC2(CC2)COc2ncc(F)cc2[C@H]2COCCN2c2ccn3ncc1c3n2 as the compound, how does the IC50 [1] read?
A: The IC50 was 3.5 nM.

Q: And the Activity [2]?
A: The Activity was 96%.

Q: What about the Activity [3] of the same compound?
A: The Activity was 74%.

Q: What about the Activity [4] of the same compound?
A: Its Activity is 106%.

Q: And the Activity [5]?
A: Its Activity is 111%.

Q: And the AUC(0-t) at 24 h [6]?
A: The AUC(0-t) at 24 h was 31.7 µM·h.

Q: What about the bioavailability [7] of the same compound?
A: The bioavailability was 61.9%.

Q: And the Activity [8]?
A: Its Activity is 102%.

Q: What about the Activity [9] of the same compound?
A: The Activity was 94%.

Q: What about the half-life [10] of the same compound?
A: The half-life was 2.21 h.

Q: And the Activity [11]?
A: The Activity was 109%.

Q: And the Activity [12]?
A: Its Activity is 72%.

Q: What about the Activity [13] of the same compound?
A: The Activity was 93%.

Q: What about the IC50 [14] of the same compound?
A: Its IC50 is 0.2 nM.

Q: And the Activity [15]?
A: Its Activity is 95%.

Q: What about the solubility kinetic [16] of the same compound?
A: Its solubility kinetic is 193 µM (≈ 79.2 µg/mL).

Q: And the Activity [17]?
A: The Activity was -1%.

Q: What about the C0 at 24 h [18] of the same compound?
A: The C0 at 24 h was 3.51 µM.

Q: What about the Cmax [19] of the same compound?
A: The Cmax was 6.38 µM.

Q: And the Activity [20]?
A: Its Activity is 101%.

Q: What about the Activity [21] of the same compound?
A: Its Activity is 33%.

Q: What about the Activity [22] of the same compound?
A: The Activity was 26%.

Q: And the Activity [23]?
A: Its Activity is 114%.

Q: Which Activity [24] does the source give for C[C@@H]1CCc2ncc(F)cc2[C@H]2CCCN2c2ccn3ncc(c3n2)C(=O)N1 [SELITRECTINIB] here?
A: The Activity was “Toxic”.

Q: And the Activity [25]?
A: Its Activity is “Toxic”.

Q: What about the Tmax [26] of the same compound?
A: Its Tmax is 0.4 h.
